How the values were obtained:
[1] = Pharmacokinetic study in male SD rats; format: in vivo; details: rat, plasma; for clearance: read-out: Cl—obs iv (clearance rate) (converted); for Vd: read-out: Vss iv (distribution volume); for bioavailability: po 5 mg/kg vs iv 1 mg/kg, read-out: F% (absolute bioavailability); for Tmax: median, read-out: Tmax po (time to peak plasma concentration); for Cmax: read-out: Cmax po (peak concentration)
Method: Experimental Example 4: Pharmacokinetic Study of Compounds in Male SD Rats
(§1) The compounds were prepared into solutions using a mixed vehicle composed of 5% dimethyl sulfoxide, 20% (30% solutol), and 75% normal saline. The compound solutions were intragastrically administered to male SD rats at a dose of 5.0 mg/kg, and the blood collection time points were: 15 min, 30 min, 1 h, 2 h, 4 h, 6 h, 8 h, 10 h, and 24 h.
as §1, with “intravenously injected into” for “intragastrically administered to”, “1.0” for “5.0”, “were: 5 min,” for “were:”, “4h,” for “4 h,”, “8h,” for “8 h,”
Intravenous catheterization was performed on the animals the day before the administration. After the administration, blood samples of about 300 μL were collected from the jugular vein and placed into anticoagulation tubes containing EDTA-K2. The blood samples were centrifuged at 5000 rpm at 4° C. for 10 min to give plasma samples. The plasma samples were prepared within 30 min after blood collection. The plasma samples were stored in a −80° C. freezer before testing.

[2] = target: T1, THP-1 cell NLRP3 (Homo sapiens, UniProt Q96P20); assay: Inhibitory activity against cell NLRP3 inflammasomes in THP-1 cells (LPS + nigericin, ELISA of supernatant); format: cell-based; details: PMA-differentiated THP-1 cells, LPS 500 ng/mL 3 h, compound 1 h, nigericin 30 min; human IL-10 (so in the source) in supernatant by ELISA
T1 construct: endogenous in cells; host or cells: THP-1 cells, PMA-differentiated, stimulated with LPS and nigericin
T1 sequence (Q96P20 whole entry): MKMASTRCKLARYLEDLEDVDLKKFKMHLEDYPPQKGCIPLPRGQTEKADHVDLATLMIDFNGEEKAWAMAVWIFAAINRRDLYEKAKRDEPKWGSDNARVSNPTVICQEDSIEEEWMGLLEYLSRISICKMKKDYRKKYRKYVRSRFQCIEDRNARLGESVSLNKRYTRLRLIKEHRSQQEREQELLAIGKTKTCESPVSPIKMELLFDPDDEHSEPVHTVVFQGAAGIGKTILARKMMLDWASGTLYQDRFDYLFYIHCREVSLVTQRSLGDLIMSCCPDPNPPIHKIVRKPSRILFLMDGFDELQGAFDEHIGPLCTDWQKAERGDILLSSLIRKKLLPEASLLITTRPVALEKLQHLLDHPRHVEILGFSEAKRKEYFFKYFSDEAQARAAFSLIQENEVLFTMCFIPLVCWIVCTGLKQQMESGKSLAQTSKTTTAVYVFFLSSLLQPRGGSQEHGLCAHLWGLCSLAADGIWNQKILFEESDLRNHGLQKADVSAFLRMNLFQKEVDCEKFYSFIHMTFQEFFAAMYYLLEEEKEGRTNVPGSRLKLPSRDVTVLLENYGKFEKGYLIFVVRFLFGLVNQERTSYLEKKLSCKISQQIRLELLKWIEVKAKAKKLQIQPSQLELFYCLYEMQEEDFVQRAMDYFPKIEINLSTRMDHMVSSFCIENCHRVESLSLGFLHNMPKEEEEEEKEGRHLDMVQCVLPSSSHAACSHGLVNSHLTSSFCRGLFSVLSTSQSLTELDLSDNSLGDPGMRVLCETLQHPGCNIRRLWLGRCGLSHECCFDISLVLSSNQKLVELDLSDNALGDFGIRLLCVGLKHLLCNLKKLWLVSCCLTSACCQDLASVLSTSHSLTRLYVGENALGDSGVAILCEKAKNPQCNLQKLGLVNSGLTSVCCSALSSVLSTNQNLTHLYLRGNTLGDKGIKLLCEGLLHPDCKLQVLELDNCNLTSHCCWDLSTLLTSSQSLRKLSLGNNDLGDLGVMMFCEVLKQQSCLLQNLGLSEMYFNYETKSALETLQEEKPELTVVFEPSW
How it was run: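 PMA-differentiated (10 ng/mL, 16 h) THP-1 cells primed with 500 ng/mL LPS for 3 h in serum-free medium, then compound for 1 h (DMSO stock diluted 1:1000). Nigericin added for 30 min at 37 °C; IL-1β (printed as IL-10) in supernatant measured by ELISA.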

[3] = Pharmacokinetic study in mice; format: in vivo, female C57BL/6J mice; details: female, C57BL/6J, mouse, plasma; for clearance: read-out: Cl—obs iv (clearance rate) (converted); for Vd: read-out: Vss iv (distribution volume); for bioavailability: po 10 mg/kg vs iv 5 mg/kg, read-out: F% (absolute bioavailability); for Tmax: median, read-out: Tmax po (time to peak plasma concentration); for Cmax: read-out: Cmax po (peak concentration)
How it was run: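 Female C57BL/6J mice received compound in 5% DMSO/20% (30% solutol)/75% saline at 10 mg/kg intragastrically (sampling 15 min–24 h) or 5 mg/kg intravenously (sampling 5 min–24 h). Plasma was acetonitrile-precipitated with tolbutamide internal standard and analysed by LC-MS/MS. PK parameters were derived by NCA, with Tmax as a median.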

[4] = iv 1 mg/kg, read-out: AUClast iv (0-24 h)
[5] = iv 1 mg/kg, read-out: tz1/2 iv (terminal half-life) (converted)
[6] = po 5 mg/kg, read-out: AUClast po (0-24 h)
[7] = po 5 mg/kg, read-out: tz1/2 po (terminal half-life) (converted)
[8] = iv 5 mg/kg, read-out: AUClast iv (0-24 h)
[9] = iv 5 mg/kg, read-out: tz1/2 iv (terminal half-life) (converted)
[10] = po 10 mg/kg, read-out: AUClast po (0-24 h)
[11] = po 10 mg/kg, read-out: tz1/2 po (terminal half-life) (converted)

C#Cc1ccc(-c2nnc(N[C@@H]3CCCN(C)C3)c(=O)n2C)c(O)c1 [Compound 23, (R)-3-(4-ethynyl-2-hydoxyphenyl)-4-methyl-6-((1-methylpiperidin-3-yl)amino)-1,2,4-triazin-5(4H)-one]
AUC(0-t) [1, 4]: 1860 ng·h/mL | clearance ([1]; iv 1 mg/kg): 7.95 mL/min/kg | Vd ([1]; iv 1 mg/kg): 2.15 L/kg | half-life [1, 5]: 3.24 h | bioavailability [1]: 81% | Tmax ([1]; po 5 mg/kg): 0.5 h | AUC(0-t) [1, 6]: 8480 ng·h/mL | Cmax ([1]; po 5 mg/kg): 1260 ng/mL | half-life [1, 7]: 3.54 h | IC50 [2]: 2.4 nM | AUC(0-t) [3, 8]: 3230 ng·h/mL | clearance ([3]; iv 5 mg/kg): 25.7 mL/min/kg | Vd ([3]; iv 5 mg/kg): 1.65 L/kg | half-life [3, 9]: 0.92 h | bioavailability [3]: 85.7% | Tmax ([3]; po 10 mg/kg): 0.5 h | AUC(0-t) [3, 10]: 5530 ng·h/mL | Cmax ([3]; po 10 mg/kg): 3030 ng/mL | half-life [3, 11]: 0.983 h

C#Cc1ccc(-c2nnc(N[C@@H]3CCCN(CCO)C3)cc2C2CC2)c(O)c1 [Compound 45, (R)-2-(4-Cyclopropyl-6-((1-(2-hydroxyethyl)piperidin-3-yl)amino)pyridazin-3-yl)-5-ethynylphenol]
AUC(0-t) [1, 4]: 1920 ng·h/mL | clearance ([1]; iv 1 mg/kg): 8.38 mL/min/kg | Vd ([1]; iv 1 mg/kg): 3.28 L/kg | half-life [1, 5]: 5.63 h | bioavailability [1]: 71.5% | Tmax ([1]; po 5 mg/kg): 4 h | AUC(0-t) [1, 6]: 6840 ng·h/mL | Cmax ([1]; po 5 mg/kg): 629 ng/mL | half-life [1, 7]: 5.19 h | IC50 [2]: 0.7 nM | AUC(0-t) [3, 8]: 11400 ng·h/mL | clearance ([3]; iv 5 mg/kg): 7.27 mL/min/kg | Vd ([3]; iv 5 mg/kg): 1.47 L/kg | half-life [3, 9]: 3.57 h | bioavailability [3]: 83.7% | Tmax ([3]; po 10 mg/kg): 1 h | AUC(0-t) [3, 10]: 19100 ng·h/mL | Cmax ([3]; po 10 mg/kg): 4130 ng/mL | half-life [3, 11]: 3.18 h

C#Cc1ccc(-c2nnc(N[C@@H]3CCCN(C)C3)cc2C(C)C)c(O)c1 [Compound 81, (R)-5-ethynyl-2-(4-isopropyl-6-((1-methylpiperidin-3-yl)amino)pyridazin-3-yl)phenol]
IC50 [2]: 1.1 nM

C#Cc1ccc(-c2nnc(N[C@@H]3CCCN(C)C3)c(C#N)c2C)c(O)c1 [Compound 103, (R)-6-(4-ethynyl-2-hydroxyphenyl)-5-methyl-3-((1-methylpiperidin-3-yl)amino)pyridazine-4-carbonitrile]
IC50 [2]: 0.6 nM

From patent US20260167637A1, “NLRP3 INFLAMMASOME INHIBITOR AND USE THEREOF” (TransThera Sciences (Nanjing), Inc., priority 2022, published 2026)
